Results as given in ChEMBL document CHEMBL1201862, “PubChem BioAssay data set” (2004).
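Assay format: 96-well plates, 48-hour exposure. Here, GI50 denotes the concentration required for 50% inhibition of growth.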 Calls of active or inactive are those of the source. No stated cut-off is given here; in the data, active = GI50 up to about 1.1 µM and inactive = higher.

Tests used:
Test in all cases: NCI tumour cell line growth inhibition, 48 h
[1] = test system: A549
[2] = test system: CAKI-1
[3] = test system: COLO 205
[4] = test system: HCT-116
[5] = test system: HCT-15
[6] = test system: HOP-62
[7] = test system: IGROV-1
[8] = test system: M19-MEL
[9] = test system: NCI-H23
[10] = test system: NCI-H522
[11] = test system: OVCAR-8
[12] = test system: SNB-19
[13] = test system: SR
[14] = test system: SW-620
[15] = test system: A498
[16] = test system: EKVX
[17] = test system: LOX IMVI
[18] = test system: SN12C

Compound	GI50 [1]	GI50 [2]	GI50 [3]	GI50 [4]	GI50 [5] [µM]	GI50 [6]	GI50 [7]	GI50 [8]	GI50 [9]	GI50 [10]	GI50 [11]	GI50 [12]	GI50 [13]	GI50 [14]	GI50 [15]	GI50 [16]	GI50 [17]	GI50 [18]
CCNC(=O)OCc1c(COC(=O)NCC)c(-c2ccc(Cl)c(Cl)c2)n2c1CCC2	18.5 µM (inactive)	3.01 µM (inactive)	24.9 µM (inactive)	9.4 µM (inactive)	13.6	7.33 µM (inactive)	9.31 µM (inactive)	23.3 µM (inactive)	8.05 µM (inactive)	6.58 µM (inactive)	12.6 µM (inactive)	21.5 µM (inactive)	3.21 µM (inactive)	13.8 µM (inactive)	–	–	–	–
Cc1ccc(C2=Nc3ccccc3NC(=O)C2)cc1	> 100 µM (inactive)	> 100 µM (inactive)	> 100 µM (inactive)	> 100 µM (inactive)	> 100	> 100 µM (inactive)	> 100 µM (inactive)	> 100 µM (inactive)	> 100 µM (inactive)	98.4 µM (inactive)	79.8 µM (inactive)	> 100 µM (inactive)	> 100 µM (inactive)	27.7 µM (inactive)	> 100 µM (inactive)	> 100 µM (inactive)	95.1 µM (inactive)	> 100 µM (inactive)
CC1(C)C(=O)OC(n2cc(F)c(=O)[nH]c2=O)C1=O (configuration not stated)	66.5 µM (inactive)	–	> 100 µM (inactive)	89.5 µM (inactive)	> 100	65.9 µM (inactive)	–	> 100 µM (inactive)	> 100 µM (inactive)	> 100 µM (inactive)	> 100 µM (inactive)	> 100 µM (inactive)	–	> 100 µM (inactive)	> 100 µM (inactive)	39.1 µM (inactive)	> 100 µM (inactive)	> 100 µM (inactive)
CC1CC2OC(=O)CC2C[C@@H]1O[Si](C)(C)C(C)(C)C (some centres not stated)	88.3 µM (inactive)	70.5 µM (inactive)	74.6 µM (inactive)	38.5 µM (inactive)	54.5	48.9 µM (inactive)	74.5 µM (inactive)	42.8 µM (inactive)	63 µM (inactive)	–	81.5 µM (inactive)	> 100 µM (inactive)	–	> 100 µM (inactive)	> 10 µM (inactive)	> 100 µM (inactive)	55.7 µM (inactive)	> 100 µM (inactive)
CCC1=CCN(c2cc(C)ccn2)OC1c1ccccc1 (configuration not stated)	40.1 µM (inactive)	66.1 µM (inactive)	40.6 µM (inactive)	30.8 µM (inactive)	21.8	> 100 µM (inactive)	67.8 µM (inactive)	34.4 µM (inactive)	25.4 µM (inactive)	18.5 µM (inactive)	53.1 µM (inactive)	81.3 µM (inactive)	21.1 µM (inactive)	32.2 µM (inactive)	–	56.4 µM (inactive)	30.9 µM (inactive)	34.6 µM (inactive)
COc1ccc(-c2cc(O)c3cc4c(cc3n2)OCO4)cc1	> 100 µM (inactive)	–	> 100 µM (inactive)	> 100 µM (inactive)	> 100	61 µM (inactive)	> 100 µM (inactive)	> 100 µM (inactive)	> 100 µM (inactive)	–	> 100 µM (inactive)	55.5 µM (inactive)	> 100 µM (inactive)	> 100 µM (inactive)	> 100 µM (inactive)	19.9 µM (inactive)	> 100 µM (inactive)	> 100 µM (inactive)
C=CCCOC(=O)CO[N+](=O)[O-]	> 100 µM (inactive)	> 100 µM (inactive)	> 100 µM (inactive)	> 100 µM (inactive)	> 100	> 100 µM (inactive)	> 100 µM (inactive)	> 100 µM (inactive)	> 100 µM (inactive)	> 100 µM (inactive)	> 100 µM (inactive)	> 100 µM (inactive)	> 100 µM (inactive)	> 100 µM (inactive)	–	> 100 µM (inactive)	> 100 µM (inactive)	> 100 µM (inactive)
COC(=O)C(Cc1nc2ccccc2nc1O)/C(=N\NC(C)(C)C)C(=O)Nc1c(C)cc(Br)cc1C (configuration not stated)	50.9 µM (inactive)	24.5 µM (inactive)	17.4 µM (inactive)	18.6 µM (inactive)	23.4	35 µM (inactive)	36.3 µM (inactive)	45.1 µM (inactive)	25.2 µM (inactive)	15.1 µM (inactive)	21.9 µM (inactive)	31.1 µM (inactive)	20.5 µM (inactive)	35.2 µM (inactive)	12.7 µM (inactive)	36.4 µM (inactive)	19.3 µM (inactive)	42.7 µM (inactive)
NC(=O)COc1ccccc1	> 100 µM (inactive)	> 100 µM (inactive)	> 100 µM (inactive)	> 100 µM (inactive)	> 100	> 100 µM (inactive)	> 100 µM (inactive)	> 100 µM (inactive)	> 100 µM (inactive)	> 100 µM (inactive)	> 100 µM (inactive)	> 100 µM (inactive)	> 100 µM (inactive)	> 100 µM (inactive)	> 100 µM (inactive)	> 100 µM (inactive)	> 100 µM (inactive)	> 100 µM (inactive)
CO/N=C/c1cc(OC)c(OC)c(OC)c1	> 100 µM (inactive)	> 100 µM (inactive)	> 100 µM (inactive)	> 100 µM (inactive)	> 100	> 100 µM (inactive)	> 100 µM (inactive)	> 100 µM (inactive)	> 100 µM (inactive)	> 100 µM (inactive)	> 100 µM (inactive)	> 100 µM (inactive)	> 100 µM (inactive)	> 100 µM (inactive)	> 100 µM (inactive)	> 100 µM (inactive)	> 100 µM (inactive)	> 100 µM (inactive)
CN1CCC(C(=O)NNc2ccccc2)CC1	12.2 µM (inactive)	> 20.6 µM (inactive)	3.08 µM (inactive)	> 43.4 µM (inactive)	1.61	14.3 µM (inactive)	> 36.6 µM (inactive)	13.9 µM (inactive)	42.4 µM (inactive)	3.27 µM (inactive)	9.73 µM (inactive)	> 100 µM (inactive)	7.43 µM (inactive)	7.98 µM (inactive)	> 100 µM (inactive)	34.5 µM (inactive)	0.923 µM (active)	> 100 µM (inactive)
COc1ccc(/C=C2\Cc3ccccc3C2=O)cc1OC	> 100 µM (inactive)	> 100 µM (inactive)	> 100 µM (inactive)	–	> 100	> 100 µM (inactive)	> 100 µM (inactive)	> 100 µM (inactive)	91.6 µM (inactive)	70.6 µM (inactive)	> 100 µM (inactive)	> 100 µM (inactive)	–	> 100 µM (inactive)	> 100 µM (inactive)	> 100 µM (inactive)	–	> 100 µM (inactive)
NC1=NC(c2ccccc2)CC(c2cc(Cl)ccc2O)=N1 (configuration not stated)	14.3 µM (inactive)	14.9 µM (inactive)	19.5 µM (inactive)	14 µM (inactive)	–	16.2 µM (inactive)	19.3 µM (inactive)	14.5 µM (inactive)	15.5 µM (inactive)	15.5 µM (inactive)	16.2 µM (inactive)	16.7 µM (inactive)	15.8 µM (inactive)	14.1 µM (inactive)	20.1 µM (inactive)	15.3 µM (inactive)	15.5 µM (inactive)	13.6 µM (inactive)
Nc1nc(N)c(CCCCc2ccccc2)c(C=O)n1	41.4 µM (inactive)	27.3 µM (inactive)	31.8 µM (inactive)	13.1 µM (inactive)	14.7	> 100 µM (inactive)	17.8 µM (inactive)	14.8 µM (inactive)	19 µM (inactive)	–	16.3 µM (inactive)	16.1 µM (inactive)	–	11.7 µM (inactive)	> 100 µM (inactive)	21 µM (inactive)	14.8 µM (inactive)	19.1 µM (inactive)
C=C1C(=O)O[C@H]2C[C@@H](C)[C@@H]3CC(=O)OC[C@@]3(C)CC12 (some centres not stated)	27.8 µM (inactive)	18 µM (inactive)	20.9 µM (inactive)	21 µM (inactive)	29.4	44.8 µM (inactive)	51.6 µM (inactive)	34.5 µM (inactive)	23.3 µM (inactive)	3.56 µM (inactive)	17.9 µM (inactive)	53.1 µM (inactive)	–	16.7 µM (inactive)	–	27.5 µM (inactive)	24.9 µM (inactive)	21.6 µM (inactive)
O=C1N=C2N=C(c3ccc(Cl)cc3)N(c3ccc(Cl)cc3)N2Sc2ccccc21	39.8 µM (inactive)	> 100 µM (inactive)	> 100 µM (inactive)	> 100 µM (inactive)	> 100	36.1 µM (inactive)	> 100 µM (inactive)	> 100 µM (inactive)	> 100 µM (inactive)	> 100 µM (inactive)	> 100 µM (inactive)	47.2 µM (inactive)	–	> 100 µM (inactive)	> 100 µM (inactive)	> 100 µM (inactive)	> 100 µM (inactive)	> 100 µM (inactive)
CC(=O)Oc1ccc(CO)cc1OC(C)=O	> 100 µM (inactive)	> 100 µM (inactive)	> 100 µM (inactive)	> 100 µM (inactive)	> 100	> 100 µM (inactive)	–	> 100 µM (inactive)	–	36.3 µM (inactive)	> 100 µM (inactive)	> 100 µM (inactive)	> 100 µM (inactive)	> 100 µM (inactive)	> 100 µM (inactive)	32.2 µM (inactive)	> 100 µM (inactive)	> 100 µM (inactive)
